For series [1], the system named is NF-κB promoter activity in RAW-Blue macrophages. In words: RAW-Blue NF-κB reporter gene assay. The class given is cell-based, murine. The note with it: 16 hrs pre-treatment + 4 hrs stimulus. Background: Reporter assays use an easily measured gene product as a stand-in for the process of interest.
Series [2] concerns RAW264.7 murine macrophages. Put plainly: Gene expression analysis in RAW264.7 by RT-q-PCR after LPS and IFNγ stimulus. The class given is cell-based.
The test system of series [3] is murine precision-cut lung slices (PCLS). It counts as cell-based.
Series [4] concerns histone H3 and H4 acetylation in RAW264.7 cells. In words: Histone acetylation by acetic anhydride-d6 labelling and LC-MS/MS. It counts as cell-based, murine.
Series [5] concerns α-tubulin acetylation in RAW264.7 cells. In words: α-tubulin acetylation immunoblot. The class given is cell-based, murine. A general note: Immunoblotting shows a protein as a band on a membrane.
Series [6] concerns the target T1, lysine acetyltransferase 8 (KAT8) (Homo sapiens, UniProt Q9H7Z6).
T1 sequence (Q9H7Z6 1-458): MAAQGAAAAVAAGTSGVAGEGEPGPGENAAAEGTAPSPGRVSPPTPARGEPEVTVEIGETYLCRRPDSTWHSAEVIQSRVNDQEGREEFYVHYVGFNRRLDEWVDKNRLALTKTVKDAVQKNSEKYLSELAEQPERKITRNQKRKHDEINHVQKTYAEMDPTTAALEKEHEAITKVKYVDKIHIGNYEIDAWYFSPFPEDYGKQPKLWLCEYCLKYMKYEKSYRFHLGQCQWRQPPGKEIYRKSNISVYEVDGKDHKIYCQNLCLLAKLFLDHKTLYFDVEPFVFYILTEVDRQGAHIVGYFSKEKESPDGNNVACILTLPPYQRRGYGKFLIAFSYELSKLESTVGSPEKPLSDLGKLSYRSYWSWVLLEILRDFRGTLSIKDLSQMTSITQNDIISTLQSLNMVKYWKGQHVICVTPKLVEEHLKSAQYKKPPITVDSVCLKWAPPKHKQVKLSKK
In words: KAT8 activity assay. The note with it: N.I. = no inhibition. It counts as biochemical.

The target of another series is HDAC1 (Homo sapiens, UniProt Q13547). Put plainly: human recombinant HDAC inhibition assay. The class given is biochemical. The note with it: N.I. = no inhibition.
HDAC1, sequence (Q13547 whole entry): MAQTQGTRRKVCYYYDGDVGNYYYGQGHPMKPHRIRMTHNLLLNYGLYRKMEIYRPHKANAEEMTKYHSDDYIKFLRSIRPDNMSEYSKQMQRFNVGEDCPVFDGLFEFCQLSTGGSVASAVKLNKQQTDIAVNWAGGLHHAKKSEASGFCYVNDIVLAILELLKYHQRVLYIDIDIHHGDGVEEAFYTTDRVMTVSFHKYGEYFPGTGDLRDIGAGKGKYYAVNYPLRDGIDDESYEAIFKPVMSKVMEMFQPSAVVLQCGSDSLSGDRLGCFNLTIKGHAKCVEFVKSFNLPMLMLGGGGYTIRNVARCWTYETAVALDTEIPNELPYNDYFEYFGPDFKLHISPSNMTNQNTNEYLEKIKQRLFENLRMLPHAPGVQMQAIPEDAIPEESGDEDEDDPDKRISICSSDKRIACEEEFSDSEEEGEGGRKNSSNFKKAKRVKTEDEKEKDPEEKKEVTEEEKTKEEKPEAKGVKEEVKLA
In another series the target is HDAC2 (Homo sapiens, UniProt Q92769). Put plainly: human recombinant HDAC inhibition assay and Lineweaver-Burk plots. The class given is biochemical.
HDAC2, sequence (Q92769 whole entry): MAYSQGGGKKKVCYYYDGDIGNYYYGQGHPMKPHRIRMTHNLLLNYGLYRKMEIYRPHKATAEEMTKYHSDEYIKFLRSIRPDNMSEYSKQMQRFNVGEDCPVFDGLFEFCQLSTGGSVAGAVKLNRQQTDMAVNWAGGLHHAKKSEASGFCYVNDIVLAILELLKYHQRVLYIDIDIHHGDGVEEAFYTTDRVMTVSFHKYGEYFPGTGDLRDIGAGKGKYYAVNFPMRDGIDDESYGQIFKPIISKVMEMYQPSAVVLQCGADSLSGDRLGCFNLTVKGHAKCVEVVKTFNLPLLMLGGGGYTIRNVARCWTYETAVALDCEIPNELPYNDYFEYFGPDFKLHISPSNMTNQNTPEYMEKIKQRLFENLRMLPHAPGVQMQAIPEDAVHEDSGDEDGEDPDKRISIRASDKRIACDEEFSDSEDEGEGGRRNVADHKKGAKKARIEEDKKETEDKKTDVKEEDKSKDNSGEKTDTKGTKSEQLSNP
A further series deals with HDAC3 (Homo sapiens, UniProt O15379). Put plainly: human recombinant HDAC inhibition assay. The note with it: read-out: Ki value HDAC3. The class given is biochemical.
HDAC3, sequence (O15379 whole entry): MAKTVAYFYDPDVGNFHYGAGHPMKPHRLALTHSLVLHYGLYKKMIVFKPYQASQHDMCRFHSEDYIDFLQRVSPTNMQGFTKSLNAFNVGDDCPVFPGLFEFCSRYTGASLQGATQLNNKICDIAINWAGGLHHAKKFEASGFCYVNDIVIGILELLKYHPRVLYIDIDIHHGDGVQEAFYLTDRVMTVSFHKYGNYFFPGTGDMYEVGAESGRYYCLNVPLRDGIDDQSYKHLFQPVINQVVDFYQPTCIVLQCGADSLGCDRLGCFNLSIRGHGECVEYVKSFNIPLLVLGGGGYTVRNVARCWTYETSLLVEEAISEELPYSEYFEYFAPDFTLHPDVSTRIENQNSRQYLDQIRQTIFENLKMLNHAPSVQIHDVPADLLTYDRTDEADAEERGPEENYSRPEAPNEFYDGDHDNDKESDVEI
HDAC3, sequence (Q9Y618 395-489 partner limits assumed): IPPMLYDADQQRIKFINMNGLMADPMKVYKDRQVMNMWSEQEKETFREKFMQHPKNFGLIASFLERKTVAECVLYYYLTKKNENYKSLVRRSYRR
The next series concerns the target T2, HDAC6 (Homo sapiens, UniProt Q9UBN7).
T2 sequence (Q9UBN7 1-1215): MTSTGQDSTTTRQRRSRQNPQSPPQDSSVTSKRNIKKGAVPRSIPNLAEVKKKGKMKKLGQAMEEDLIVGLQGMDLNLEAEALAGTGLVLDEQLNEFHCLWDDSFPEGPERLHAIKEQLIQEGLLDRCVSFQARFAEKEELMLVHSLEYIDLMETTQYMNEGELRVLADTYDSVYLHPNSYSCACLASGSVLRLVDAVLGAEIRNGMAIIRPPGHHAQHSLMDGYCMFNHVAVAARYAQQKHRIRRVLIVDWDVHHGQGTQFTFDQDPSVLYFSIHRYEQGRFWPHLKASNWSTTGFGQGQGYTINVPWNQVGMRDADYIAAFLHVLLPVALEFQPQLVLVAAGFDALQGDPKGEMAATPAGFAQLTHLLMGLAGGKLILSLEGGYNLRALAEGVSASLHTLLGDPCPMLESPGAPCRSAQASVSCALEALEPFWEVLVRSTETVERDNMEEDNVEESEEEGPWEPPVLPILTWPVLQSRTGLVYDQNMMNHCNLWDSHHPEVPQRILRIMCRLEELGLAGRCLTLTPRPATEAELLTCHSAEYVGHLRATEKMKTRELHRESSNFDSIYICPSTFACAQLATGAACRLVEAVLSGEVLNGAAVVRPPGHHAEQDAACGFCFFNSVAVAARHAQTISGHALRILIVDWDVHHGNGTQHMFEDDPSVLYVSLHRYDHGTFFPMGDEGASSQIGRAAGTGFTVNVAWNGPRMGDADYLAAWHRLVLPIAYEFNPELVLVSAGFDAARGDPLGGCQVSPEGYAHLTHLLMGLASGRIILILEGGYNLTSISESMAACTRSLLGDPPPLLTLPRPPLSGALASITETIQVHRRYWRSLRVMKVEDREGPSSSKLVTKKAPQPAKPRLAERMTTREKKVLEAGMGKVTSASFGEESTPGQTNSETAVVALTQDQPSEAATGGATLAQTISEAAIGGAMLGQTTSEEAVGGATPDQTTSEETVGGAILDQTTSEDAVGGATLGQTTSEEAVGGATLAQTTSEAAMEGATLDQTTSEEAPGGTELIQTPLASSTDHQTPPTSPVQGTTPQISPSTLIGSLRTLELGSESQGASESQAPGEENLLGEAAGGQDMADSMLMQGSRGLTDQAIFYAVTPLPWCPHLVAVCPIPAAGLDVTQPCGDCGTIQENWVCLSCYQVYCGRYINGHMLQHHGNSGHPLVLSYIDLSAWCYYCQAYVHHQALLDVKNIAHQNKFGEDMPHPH
Put plainly: human recombinant HDAC inhibition assay and Lineweaver-Burk plots. The class given is biochemical.

The target of a further series is T3, HDAC8 (Homo sapiens, UniProt Q9BY41).
T3 sequence (Q9BY41 1-377): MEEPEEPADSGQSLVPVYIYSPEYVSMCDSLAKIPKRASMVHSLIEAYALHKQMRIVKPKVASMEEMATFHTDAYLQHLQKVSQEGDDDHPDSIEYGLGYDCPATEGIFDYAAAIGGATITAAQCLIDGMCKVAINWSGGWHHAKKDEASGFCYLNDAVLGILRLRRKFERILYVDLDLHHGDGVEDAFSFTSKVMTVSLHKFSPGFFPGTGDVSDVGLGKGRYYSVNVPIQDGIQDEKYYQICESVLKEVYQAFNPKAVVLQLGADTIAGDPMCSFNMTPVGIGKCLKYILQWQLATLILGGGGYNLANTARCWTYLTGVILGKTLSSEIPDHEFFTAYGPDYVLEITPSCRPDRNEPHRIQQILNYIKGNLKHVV
Put plainly: human recombinant HDAC inhibition assay. The class given is biochemical. The note with it: read-out: Ki value HDAC8.

A further series deals with RAW264.7 macrophages. Put plainly: Viability assay. The class given is cell-based, murine. The settings on record: C646 concentrations above 30 μM, 20 hrs.
Series [7] relates to precision-cut lung slices (PCLS). In words: PCLS viability by lactate dehydrogenase. The class given is cell-based, murine. The settings on record: C646 concentrations above 25 μM.
The subject of a further series is type I and II HDACs. Put plainly: recombinant HDAC inhibition, summary over isoenzymes. The class given is biochemical, human.
Where [8] appears, read: Boc-Lys-(Ac)-AMC as substrate, Lineweaver-Burk plot.
Setting [9] is: RAW264.7, C646 at 30 μM, downregulation.
Setting [10] is: C646 at 15, 20, 25 or 30 μM for 6 hrs.

For orientation: Ki means the equilibrium dissociation constant of an inhibitor or competing ligand from its target.

Read-outs that look alike come from different tables or passages of the source.

On to `O=C(CCCCCCC(=O)Nc1ccccc1)NO` [SAHA, suberanilohydroxamic acid], for which, in [1] (SAHA 0.41 μM), the “LPS and IFNγ induced NF-κB promoter activity” value was “further enhanced”. Also, the “percentage of change in IL-1β gene expression compared to vehicle” value in series [2] (RAW264.7, SAHA at 0.41 μM, upregulation) worked out at 317%. Besides, in series [3] (SAHA at 0.41 μM, downregulation), the “percentage of change in iNOS gene expression compared to vehicle” value came to 39.9%. For the same molecule, in [3] (SAHA at 0.41 μM, upregulation), the “percentage of change in IL-1β gene expression compared to vehicle” value came out at 41.5% and the “percentage of change in IL-6 gene expression compared to vehicle” value amounted to 58.8%. Moreover, in series [4] (SAHA 0.41 µM for 20 hrs), the “acetylation of histone-derived peptides H4 4-17 and H3 18-26” value was “increased acetylation”. For the same molecule, the α-tubulin acetylation entry in series [5] (SAHA, data not shown) is “upregulated”.

With `CC1=NN(c2ccc(C(=O)O)cc2)C(=O)/C1=C\c1ccc(-c2cc(C)c(C)cc2[N+](=O)[O-])o1` [C646], the “Ki value KAT8” value in [6] is “N.I”. For the same molecule, the “Ki value HDAC1” value on HDAC1 is “N.I”. Moreover, the “kinetics of inhibition of HDAC2” value on HDAC2 (setting [8]) is listed as “non-competitive inhibition”. The Ki on HDAC2 (read-out: Ki value HDAC2) was 15 ± 1 µM; at HDAC3, 25 ± 5 µM; at HDAC6 (read-out: Ki value HDAC6), 7 ± 1 µM; at HDAC8, 11 ± 1 µM. Besides, the “kinetics of inhibition of HDAC6” value on HDAC6 (setting [8]) was “non-competitive inhibition”. Besides, in series [1] (C646 at 15 μM or higher (up to 30 μM)), the “LPS and IFNγ induced NF-κB promoter activity” value is reported as “significant inhibition”. In addition, the “percentage of change in IL-12b gene expression compared to vehicle” value in series [2] (setting [9]) came to 54.2%; in series [3] (C646 at 25 μM, downregulation) it was 85.0%. Further, the “percentage of change in TNFα gene expression compared to vehicle” value in series [2] (setting [9]) was 54.1%; in series [3] (C646 at 25 μM, downregulation) it was 79.1%. The “percentage of change in IL-1β gene expression compared to vehicle” value in series [3] (C646 at 25 μM, downregulation) turned out to be 72.3%. Besides, in [3] (C646 at 25 μM, downregulation), the “percentage of change in iNOS gene expression compared to vehicle” value came out at 58.4%. The “acetylation status of histone H3 res. 18-26 (H3 K18 and H3 K23)” value in [4] (C646 30 μM for 6 hrs) was “small yet significant increase”; in series [4] (C646 at concentrations lower than 30 μM for 6 hrs), “not significant”. Also, the “acetylation status of histone H4 res. 4-17” value in series [4] (setting [10]) was “No significant changes”. Further, the “acetylation status of other histone H4 peptides” value in series [4] (setting [10]) is on record as “no changes in acetylation status”. Moreover, the “histone acetylation (H3 res. 18-26, H4 res. 4-17)” value in series [4] (C646 at 15, 20, 25 or 30 μM for 20 hrs, no inflammatory stimulus) is given as “No changes in histone acetylation”. Moreover, the α-tubulin acetylation entry in series [5] (C646 15 μM for 6 hrs) is given as “but not at 15 μM”; in series [5] (C646 30 μM for 6 hrs), “pronounced inhibition”; in series [5] (C646 30 μM for 20 hrs) it was “inhibition of α-tubulin acetylation was also observed”. Moreover, the “viability of the macrophages” value in the series with RAW264.7 macrophages is listed as “decreased viability”. Further, the “viability of PCLS” value in [7] is recorded as “decreased viability”. Further, the “concentration from which histone deacetylases are inhibited” value with type I and II HDACs was no less than 7 µM.

Source of the values: article PMC4871277 (Biochemical pharmacology, 2015).
